In patent US6428804B1, “Intra-articular preparation for the treatment of arthropathy” (SSP Co., Ltd., priority 1997, dated 2002):

How the values were obtained:
[1] = Pharmacokinetic test of MTX-containing microcapsules (Test 8); type: in vivo; conditions: rabbit knee joint, 1 mg in terms of MTX (FIG. 11)
Experimental: The MTX-containing microcapsules obtained in Example 26 were suspended in the same injection-grade dispersion medium as that employed in Test 1. The resulting suspension was injected in a dose of 1 mg in terms of MTX into a knee joint of a rabbit, and the amount of MTX in the synovium and its peripheral tissue was measured periodically. As a control, MTX was dissolved in a phosphate buffer of pH 7.5 and the resulting solution was injected in a dose of 1 mg in terms of MTX.

[2] = Pharmacokinetic test of DFNa-containing microcapsules (Test 6); type: in vivo; conditions: rabbit knee joint, 1 mg in terms of DFNa, solution in physiological saline (FIG. 9)
Experimental: The DFNa-containing microcapsules (average particle size: 67.9 μm) obtained in Example 25 were suspended in the same injection-grade dispersion medium as that employed in Test 1. The resulting suspension was injected in a dose of 10 mg in terms of DFNa into a knee joint of a rabbit, and the amount of DF in the synovium and its peripheral tissue was measured periodically. As a control, a solution of DFNa in a physiological saline was injected in a dose of 1 mg in terms of DFNa, and measurements were conducted.

Row | amount of MTX in the synovium and its peripheral tissue [1] | amount of DF in the synovium and its peripheral tissue [2] | Compound
1 | no existence of MTX was observed | – | CN(Cc1cnc2nc(N)nc(N)c2n1)c1ccc(C(=O)N[C@@H](CCC(=O)O)C(=O)O)cc1 [solution of MTX in the phosphate buffer, Methotrexate]
2 | – | no existence of DF was observed | O=C(O)Cc1ccccc1Nc1c(Cl)cccc1Cl [diclofenac sodium]
